Laboratory results as given in patent US10633363B2, “EPAC1 activators as HIV latency reversal agents (LRA)” (The Board of Regents of The University of Texas System, priority 2017, dated 2020).
“Also recorded” adds a separate entry of the source.

Key:
[1] = system: latent HIV in J-lat cells; assay: Activation of GFP expression (latent HIV reactivation) in J-lat cells; format: cell-based; conditions: for Ability to stimulate GFP expression in J-lat cells compared with ZL0568 (SAR): 10 μM; for GFP expression in J-lat cells: flow cytometry, 10 M (so in the source)
Experimental: FIG. 2A. Assessment of compound ZL0568, an exemplary embodiment of the invention, for the ability to stimulate GFP expression in J-lat cells. GFP fluorescence intensity was measured by microplate reader.
FIG. 2C. Dose-dependent activation of GFP expression in J-lat cells by ZL0568 measured by flow cytometry.
Dose-dependent activation of GFP expression by ZL0568 in J-lat cells was confirmed by flow cytometric analysis with an EC50 value of 8 μM (in DMSO) (FIG. 2C-D). […] See e.g., FIG. 8A-E.
Specificity and structure-activity relationship (SAR) for ZL0568 was determined by synthesizing and testing four analogues (ZL0696, ZL0697, ZL0699 and ZL06100; 10 μM).

[2] = system: latent HIV in NNTC PBMC; assay: Activation of latent HIV gene expression (3'LTR PCR) in PBMC of ART-suppressed, aviremic HIV-infected subjects (NNTC); format: cell-based; conditions: for HIV gene expression, PCR quantification of HIV 3'LTR vs NC: fresh and frozen PBMC of one NNTC subject, 48 hours, ZL0568 10 M (so in the source)
Experimental: FIG. 6A. Relative HIV gene expression in one representative PBMC following different treatments. Fresh and cryopreserved PBMC of the same donor were compared.
FIG. 6C. Relative HIV gene expression in multiple BMCs (n=8) after treatments were summarized.
The ability of compound ZL0568 to activate latent HIV in PBMC of ART-suppressed, aviremic HIV-infected subjects was tested. PBMC samples were obtained from the well-established HIV infection cohort from the National NeuroAIDS Tissue Consortium (NNTC) with (66, 67). First, feasibility of using NNTC's cryopreserved PBMC in the experiments was explored by comparing the results from fresh and frozen PBMC of the same subject. […] Thus, fresh and cryopreserved PBMC from a representative NNTC subject (ID: 8400337177) were stimulated with compound ZL0568 (10 M) as compared to stimulation with mock (NC) or positive controls (JQ1, Prostratin and PMA; concentrations of positive controls were used as previously reported (21, 25)).
(§1) HIV release in the supernatants of PBMC at 72 hours after treatments using the 1G5 luciferase reporter assay (68, 69) was measured and very similar results were found (FIG. 6B). We noted that although the levels of HIV activation in frozen PBMC were generally lower than those in fresh PBMC, the differences among different treatments were consistently detected (FIG. 6A-B), supporting the feasibility of using NNTC's cryopreserved PBMCs in our system.
(§2) Compound ZL0568 was further tested in multiple NNTC's donor PBMCs (n=8) for HIV gene activation (FIG. 6C) as well as viral production (FIG. 6D).

[3] = system: T cells; assay: T-cell activation marker expression (CD25, CD38, CD69, HLA-DR) by flow cytometry; format: cell-based, human; conditions: 10 μM
Experimental: FIG. 8D. T-cell activation by ZL0568. Activation marker expression (CD25, CD38, CD69, HLA-DR) on T-cells was measured flow cytometry and compared between ZL0568 (10 uM) and NC.
(§3) Cellular toxicity profile of ZL0568 and its effects on human T cells was evaluated. […] This possibility was precluded since apoptosis was recently shown to be associated with HIV reactivation (68).

[4] = system: J-lat cells; assay: Cellular toxicity on J-lat cells (% viable cells); format: cell-based; conditions: J-lat cells; 40 μM
Experimental: (§4) FIG. 8A. Cellular toxicity of ZL0568 on J-lat cells. Toxicity was measured as % viable cells at Day 1, 2 and 3 after stimulation at various concentrations.
as §3

[5] = Cellular toxicity on J-lat cells (% viable cells); format: cell-based; conditions: stated for J-lat and human PBMC together; cell type not specified; read-out: cytotoxicity CC50
Experimental: as §4, §3

[6] = system: latent HIV in human monocytic U1 cells; assay: Activation of latent HIV in U1 cells, intracellular HIV p24 staining by flow cytometry; format: cell-based; conditions: various concentrations, 48 hours
Experimental: FIG. 4. Activation of latent HIV by compound ZL0568 in U1 cells. U1 cells were stimulated with various concentrations of compound ZL0568 as indicated or mock-stimulated (NC) for 48 hours. Reactivation of latent HIV were examined based on intracellular HIV p24 staining (p24%) by flow cytometry.
Whether or not compound ZL0568, an exemplary embodiment of the invention, can activate latent HIV in human monocytic U1 cells was evaluated. In particular, U1 cells were stimulated with various concentrations of ZL0568 or mock DMSO (NC). Reactivation of latent HIV was measured based on intracellular HIV p24 staining by flow cytometry.

[7] = system: HIV in RV21 PBMC; assay: Activation of HIV gene expression in PBMC of ART-naive, viremic HIV-infected individuals (RV21); format: cell-based
Experimental: FIG. 5A Activation of HIV gene expression (3′ LTR) in a representative RV21 PBMC on Day 1, 2 and 5 after stimulation. The data are shown as fold change to NC.
A significant limitation for some existing LRAs (e.g. HDACi & BETi) is related to their limited efficacy to activate latent HIV in primary cells (16, 17, 19-21). Whether or not our compound ZL0568 can stimulate HIV gene expression in human PBMC from ART-naïve, viremic HIV-infected individuals was assessed using cells from the RV21, an ART-naïve, HIV infection cohort at the Military HIV Research Program (MHRP). See e.g., Liu F, et al. Sequential Dysfunction and Progressive Depletion of Candida albicans-Specific CD4 T Cell Response in HIV-1 Infection. PLoS Pathog 12(6):e1005663 (2016). A widely-used method to detect HIV transcription in cells from infected individuals involves measurement of RNAs containing HIV gag sequences. […] See e.g., Bullen C K, Laird G M, Durand C M, Siliciano J D, & Siliciano R F, New ex vivo approaches distinguish effective and ineffective single agents for reversing HIV-1 latency in vivo. Nat Med 20(4):425-429 (2014).
Therefore, in addition to Gag, a new PCR assay, established by the Siliciano group, specific for intracellular HIV mRNA using a primer/probe set that detects the 3′-sequence common to all correctly terminated HIV RNAs was employed. […]

[8] = system: T cells; assay: Expression of cytokines in T cells by intracellular cytokine staining; format: cell-based, human; conditions: 10 uM, 24 hours
Experimental: FIG. 8E. Expression of cytokines (% IFN-r, IL-2, MIP-1b or IL-17) in T cells between ZL0568 treatment (10 uM) and NC (24 hours), measured by intracellular cytokine staining.
as §3

[9] = system: T cells; assay: Caspase-3 and Caspase-1 expression in T cells; format: cell-based, human; conditions: 24 hours, vs NC
Experimental: FIG. 8C. Caspase-3 and Caspase-1 expression in T cells with ZL0568 stimulation as compared to NC (24 hours).
as §3

[10] = system: human PBMC; assay: Cellular toxicity on human PBMC (% viable cells); format: cell-based; conditions: 40 μM
Experimental: FIG. 8B. Cellular toxicity of ZL0568 on human PBMC. Toxicity was measured as % viable cells at Day 1, 2 and 3 after stimulation at various concentrations.
as §3

[11] = system: latent HIV in NNTC PBMC; assay: HIV release in supernatants of treated PBMC, 1G5 luciferase reporter assay; format: cell-based; conditions: multiple NNTC donor PBMCs (n=8), p<0.01
Experimental: FIG. 6B. Relative viral release in one representative PBMC following different treatments. Fresh and cryopreserved PBMC of the same donor were compared.
FIG. 6D. HIV release in supernatants of treated PBMC was measured by 1G5 reporter luciferase assay and compared between ZL0568 and NC.
as §1, §2

[12] = system: EPAC (EPAC1) in J-lat cells; assay: 007-AM-stimulated GFP expression in J-lat cells after CRISPR/Cas9 knock out of EPAC; format: cell-based
Description: FIG. 3F. Functional involvement of EPAC in 007-AM stimulated HIV reactivation in J-lat cells.

SMILES | Ability to stimulate GFP expression in J-lat cells compared with ZL0568 (SAR) [1] | HIV gene expression, PCR quantification of HIV 3'LTR vs NC [2] | GFP expression in J-lat cells [1] | GFP expression / HIV reactivation in J-lat cells (in words) [1] | also measured
Cn1cc(C(=O)/C(C#N)=N/Nc2ccc3c(c2)CCC(=O)N3)c2ccccc21 [ZL06100, (E)-2-(1-Methyl-1H-indol-3-yl)-2-oxo-N-(2-oxo-1,2,3,4-tetrahydroquinolin-6-yl)acetohydrazonoyl Cyanide] | still maintained some potency |  |  |  | 
Cc1sc2c(c1C)C(c1ccc(Cl)cc1)=N[C@@H](CC(=O)OC(C)(C)C)c1nnc(C)n1-2 [JQ1, reference compound] |  | failed to do so | 8.97% |  | 
Cn1cc(C(=O)/C(C#N)=N/Nc2cc(Cl)cc(Cl)c2)c2ccccc21 [ZL0699, (E)-N-(3,5-Dichlorophenyl)-2-(1-methyl-1H-indol-3-yl)-2-oxoacetohydrazonoyl Cyanide] | substantially abrogated the ability to stimulate GFP expression |  |  |  | 
CC(C)(C)c1cc(C(=O)/C(C#N)=N/Nc2cccc(Cl)c2)no1 [ESI-09, reference compound] |  |  |  | no HIV activation effect; also recorded: no GFP-activating effect | 
CC(=O)O[C@@]12C[C@@H](C)[C@@]3(O)[C@@H](C=C(CO)C[C@]4(O)C(=O)C(C)=C[C@@H]34)[C@@H]1C2(C)C [Prostratin] |  | markedly activated HIV gene expression |  |  | 
Cn1cc(C(=O)/C(C#N)=N/Nc2cccc(Cl)c2)c2ccccc21 [ZL0697, (E)-N-(3-Chlorophenyl)-2-(1-methyl-1H-indol-3-yl)-2-oxoacetohydrazonoyl Cyanide] | substantially abrogated the ability to stimulate GFP expression |  |  |  | 
Cn1cc(C(=O)/C(C#N)=N/Nc2ccc(Cl)c(C(F)(F)F)c2)c2ccccc21 [ZL0568, (E)-N-(4-chloro-3-(trifluoromethyl)phenyl)-2-(1-methyl-1H-indol-3-yl)-2-oxoacetohydrazonoyl Cyanide] |  | significant HIV gene expression | 21.7% | significant GFP expression | HIV gene activation vs NC ([2]; multiple NNTC donor PBMCs (n=8), p<0.01): enhanced HIV activation; CD69 and HLA-DR expression [3]: no significant increase; T-cell activation, expression of CD25 and CD38 ([3]; p<0.001): modest level of T-cell activation; EC50 ([1]; Human immunodeficiency virus 1, flow cytometric analysis, in DMSO, read-out: EC50, dose-dependent activation of GFP expression in J-lat cells): 8 µM; Cellular toxicity, % viable cells [4]: limited cellular toxicity; CC50 [5]: 75 µM; HIV reactivation in U1 cells based on p24 expression [6]: could also stimulate HIV reactivation in U1 cells in a dose-dependent manner; HIV gene expression (3'LTR and Gag together) vs NC ([7]; ART-naive RV21 PBMCs, Day 2, p<0.005): could significantly activate HIV gene expression; HIV 3'-LTR gene expression, time course ([7]; representative RV21 PBMC, 10 M (so in the source), Day 1, 2 and 5): induced HIV 3′-TLR expression on Day 2 after stimulation, which became less significant on Day 5; Expression of inflammatory cytokines in T cells (IFN-γ, IL-2, MIP-1b, IL-17) [8]: did not induce expression of inflammatory cytokines; Induction of cell death signals (caspase-3/caspase-1) [9]: no preferential induction of cell death signals; Cellular toxicity, % viable cells [10]: limited cellular toxicity; Viral production vs NC [11]: enhanced HIV activation
CCCCCCCCCCCCCC(=O)O[C@@H]1[C@@H](C)[C@@]2(O)[C@@H](C=C(CO)C[C@]3(O)C(=O)C(C)=C[C@@H]23)[C@@H]2C(C)(C)[C@]12OC(C)=O [PMA] |  | markedly activated HIV gene expression |  |  | 
CO[C@@H]1[C@@H]2OP(=O)(OCOC(C)=O)OC[C@H]2O[C@H]1n1c(Sc2ccc(Cl)cc2)nc2c(N)ncnc21 (stereo partly shown) [007-AM, reference compound] |  |  | 12.8% | significant HIV reactivation | 007-AM-stimulated GFP expression after ablation of EPAC [12]: marked decrease
Cn1cc(C(=O)/C(C#N)=N/Nc2ccccc2Cl)c2ccccc21 [ZL0696, (E)-N-(2-Chlorophenyl)-2-(1-methyl-1H-indol-3-yl)-2-oxoacetohydrazonoyl Cyanide] | substantially abrogated the ability to stimulate GFP expression |  |  |  | 
